Data: patent US10624916B2, “Nutritional formulations using human milk oligosaccharides for modulating inflammation” (ABBOTT LABORATORIES, priority 2012, dated 2020)

Tested on: platelet neutrophil complex (PNC) formation
Assay: in vitro simulation of PNC formation (ADP-stimulated, % CD11b+CD42a+ events)
Type: cell-based, human
Details: 125 μg/mL; for individuals in whom PNC formation decreased: 3 donors, Table 4; for effect on PNC formation (in words): 15 minute ingredient incubation, n=2-3 individuals, FIG. 1; for % CD11b+CD42a+ in the tested condition as a percent of those events that were CD11b+CD42a+ under ADP stimulation, average: average of subjects; for % CD11b+CD42a+ in the tested condition as a percent of those events that were CD11b+CD42a+ under ADP stimulation, average / % CD11b+CD42a+ in the tested condition as a percent of those events that were CD11b+CD42a+ under ADP stimulation: 15 minutes with ingredient, then ADP (10 μM) 15 minutes
Protocol: Data was generated using an in vitro simulation of PNC formation with a 15 minute ingredient incubation period.
Test concentration was 125 μg/mL for all ingredients tested. Cells were incubated with test ingredients or medium alone (ADP) for 15 minutes. ADP (10 μM) was added to each tube and incubated for 15 minutes. The ADP alone contained no test ingredient. Data is expressed as % CD11b+CD42a+ in the tested conditions as a percent of those events that were CD11b+CD42a+ under ADP stimulation.

| Molecule | individuals in whom PNC formation decreased | effect on PNC formation (in words) | % CD11b+CD42a+ in the tested condition as a percent of those events that were CD11b+CD42a+ under ADP stimulation, average | % CD11b+CD42a+ in the tested condition as a percent of those events that were CD11b+CD42a+ under ADP stimulation (subject 1) | % CD11b+CD42a+ in the tested condition as a percent of those events that were CD11b+CD42a+ under ADP stimulation (subject 2) | % CD11b+CD42a+ in the tested condition as a percent of those events that were CD11b+CD42a+ under ADP stimulation (subject 3) |
| --- | --- | --- | --- | --- | --- | --- |
| 2′-fucosyllactose [2′FL] | decreased PNC formation in all 3 individuals tested | significantly reduces PNC formation | 66.9% | 87.8% | 62.1% | 50.7% |
| 3-fucosyllactose [3FL] |  | did not decrease PNC formation | 83.1% | 80.8% | 64.3% | 104.1% |
| CC(=O)N[C@H]1[C@H](O[C@H]2[C@@H](O)[C@@H](CO)O[C@@H](O[C@H]3[C@H](O)[C@@H](O)C(O)O[C@@H]3CO)[C@@H]2O)O[C@H](CO)[C@@H](O[C@@H]2O[C@H](CO)[C@H](O)[C@H](O)[C@H]2O)[C@@H]1O (mixture of isomers) [LNnT, lacto-N-neotetraose] | decreased PNC formation in 2 out of the 3 subjects tested |  | 75.4% | 102.3% | 82.9% | 41.1% |
| CC(=O)N[C@H]1[C@H]([C@H](O)[C@H](O)CO)O[C@@](O[C@H]2[C@@H](O)[C@@H](CO)O[C@@H](O[C@H]3[C@H](O)[C@@H](O)C(O)O[C@@H]3CO)[C@@H]2O)(C(=O)O)C[C@@H]1O (some centres unmarked) [3′SL, 3′-sialyllactose, reference compound] |  | do not decrease PNC formation | 99.2% | 91.3% | 89.3% | 117.1% |
| CC(=O)N[C@H]1[C@H]([C@H](O)[C@H](O)CO)O[C@@](OC[C@H]2O[C@@H](O[C@H]3[C@H](O)[C@@H](O)[C@H](O)O[C@@H]3CO)[C@H](O)[C@@H](O)[C@H]2O)(C(=O)O)C[C@@H]1O [6′SL, 6′-sialyllactose, reference compound] |  | do not decrease PNC formation | 94.2% | 90.1% | 59.8% | 132.8% |
